Measurements: patent US10251927B2, “Process to enhance the bioactivity of Ashwagandha extracts” (priority 2015, dated 2019)
Values joined by “and” are separate entries in the source; they are usually repeats but may differ in a detail not shown here. Identical values can stand only once. Like-named read-outs stand apart in the source and are kept apart here.

Assays:
Albino Wistar rats = assay: Anoxia stress tolerance test (Example 16); format: in vivo, rat; conditions: 2 mg/kg p.o.
Method: Albino Wistar rats of either sex weighing 150-220 g were selected and divided into 11 groups of six each and following treatment was given after one week of acclimatization:
Animals were treated as shown above for the 3 weeks. At the end of 1st, 2nd and 3rd week i.e. on 7th, 14th and 21st day 1 h after the treatment stress was induced by placing each animal individually in the hermetic vessel of 1 L capacity to record anoxia tolerance time. The time duration of entry of the animal into the hermetic vessel and the appearance of the first convulsion was taken as time of anoxia.

rats [1] = assay: Forced swim test after reserpine, different percentage of enteric coating (Example 31); format: in vivo, rat; conditions: Reserpine 6 mg/kg i.p.; 10 mg/kg p.o.; test after 2 hour; vehicle 250, normal control 120
Method: Efficacy Study of Different Ashwagandha Extracts Granules with Different Percentage of Enteric Coating. 44 rats were divided into 11 groups comprising of 4 rats in each group. The animals were trained for swimming test (15 minutes) as pre-test session and then fasted overnight. To the fasted animals, reserpine (6 mg/kg) was injected i.p. to depress the animals. Immediately after the reserpine injection, the test samples (ashwagandha root powder) with different percentage of enteric coating/standard were fed orally as designated dose. After 2 hour of test sample/standard, the rats were tested using forced swim test and duration of immobility in the 5 minutes test session was recorded. In this test more immobility time indicate that animal is more depressed or stressed.
The test was repeated with different percentage of coated ashwagandha extract containing 3.5% withanolide glycosides and different percentage of coated ashwagandha extract containing 35% and 80% withanolide glycosides.

rats [2] = assay: Forced swim test after reserpine injection, different Ashwagandha extracts (Example 13); format: in vivo, rat; conditions: Reserpine 6 mg/kg i.p.; 10 mg/kg p.o.; vehicle 210, normal control 120
Method: 44 rats were divided into eleven groups having 4 rats in each group. The animals were trained for swimming test (15 minutes) as pre-test session and then fasted overnight. To the fasted animals, reserpine (6 mg/kg) was injected i.p. to depress the animals. After 1 hour of reserpine injection, the test samples/standard was fed orally as designated dose.

rats [3] = assay: Forced swim test after reserpine injection, enteric and nonenteric coated extracts (Example 14); format: in vivo, rat; conditions: Reserpine 6 mg/kg i.p.; 10 mg/kg p.o.; vehicle 250, normal control 120
Method: 92 rats were divided into twenty three groups. Each group had 4 rats. The animals were trained for swimming test (15 minutes) as pre-test session and then fasted overnight. To the fasted animals, reserpine (6 mg/kg) was injected i.p. to depress the animals. After 1 hour of reserpine injection, the test samples/standard was fed orally as designated dose. After 1 hour of test sample/standard, the rats were tested using forced swim test and duration of immobility in the 5 minutes test session was recorded.

rats [4] = assay: Forced swim test after reserpine, normal (film), enteric and delayed release coating (Example 30); format: in vivo, rat; conditions: Reserpine 6 mg/kg i.p.; 10 mg/kg p.o.; test after 2 hour; vehicle 250, normal control 120
Method: 60 rats were divided into 15 groups comprising of 4 rats in each group. The animals were trained for swimming test (15 minutes) as pre-test session and then fasted overnight. To the fasted animals, reserpine (6 mg/kg) was injected i.p. to depress the animals. Immediately after reserpine injection, the test samples with normal (Hydroxy Propyl Cellulose; HPC), enteric (Eudragit) and delayed release (High percentage of Eudragit) coating/standard were fed orally as designated doses. After 2 hour of test sample/standard, the rats were tested using forced swim test and duration of immobility in the 5 minutes test session was recorded. In this test more immobility time indicate that animal is more depressed or stressed.

rats [5] = assay: Forced swim test after reserpine, powder/extracts treated at different pH (Example 29); format: in vivo, rat; conditions: Reserpine 6 mg/kg i.p.; 10 mg/kg p.o.; vehicle 250, normal control 120
Method: Ashwagandha powder/extract was added to different buffer(pH 1,2,3,5,7 and 7.4) in 1:20 ratio of Ashwagandh powder/extract: buffer. The extract -buffer solution was kept in a waterbath at 37° C. for 2 hrs. The solution was neutralised by adding base or acid solution. The neutralised solution was concentrated and dried.
The animals were trained for swimming test (15 minutes) as pre-test session and then fasted overnight. To the fasted animals, reserpine (6 mg/kg) was injected i.p. to depress the animals. After 1 hour of reserpine injection, the test samples treated at different pH/standard were fed orally as designated dose. After 1 hour of test sample/standard, the rats were tested using forced swim test and duration of immobility in the 5 minutes test session was recorded. In this test more immobility time indicate that animal is more depressed or stressed.

[6] = tested on: streptozotocin induced diabetic rats; assay: Antidiabetic activity of coated extracts in different doses in streptozotocin induced diabetic rats (Example 33); format: in vivo, rat; conditions: STZ diabetic rats
Method: Different Ashwagandha extracts with coating in different dosages was evaluated for antidiabetic activity in experimental rats. Male/Female albino wistar rats were maintained as per standard guidelines: housed in polypropylene cages, under 12 hour artificial light and dark cycles at a temperature of 24±2° C., given a standard pellet diet and water ad libitum. The animals were acclimatized to the animal house conditions for a week before beginning the experiment. Diabetes was induced by injecting streptozotocin 35 mg/kg dissolved in 0.1 M citrate buffer of pH 4.5, intra-peritoneally. Five days after induction of diabetes (day 1 of the study), animals were fasted for 12 hours and the fasting blood glucose level (FBG) was estimated for diagnosing diabetic rats. Animals with FBG above 200 mg/dl were considered diabetic. The diabetic animals were randomly divided into 13 groups of 4 animals each.
Fasting blood glucose level and body weight of rats was measured initially and then at Day 7, Day 14, Day 21 and Day 28 of the study.

[7] = tested on: streptozotocin induced diabetic rats; assay: Antidiabetic activity in streptozotocin induced diabetic rats (Example 32); format: in vivo, rat; conditions: STZ diabetic rats
Method: Male/Female albino wistar rats were maintained as per standard guidelines: housed in polypropylene cages, under 12 hour artificial light and dark cycles at a temperature of 24±2° C., given a standard pellet diet and water ad libitum. The animals were acclimatized to the animal house conditions for a week before beginning the experiment. Diabetes was induced by injecting streptozotocin 35mg/kg dissolved in 0.1 M citrate buffer of pH 4.5, intra-peritoneally. […] Animals with FBG above 200 mg/dl were considered diabetic. The diabetic animals were randomly divided into 13 groups of six animals each. One normal group was also included comprising of six normal rats.

wistar rats = assay: Carrageenan induced paw edema model (Example 16); format: in vivo; conditions: Rattus norvegicus, po, 10 mg/kg p.o. single dose, read-out: Percentage inhibition (%) of inflammation
Method: Fourty five wistar rats were divided into nine groups (n=5). Following treatment was given to the rats as single dose: […] The percentage inhibition of edema was calculated for each group with respect to the vehicle received control group of animals.

[8] = before treatment, group 0.5 mg/kg

## CN1C(=O)CN=C(c2ccccc2)c2cc(Cl)ccc21 [Diazepam]
Albino Wistar rats; First week
  Duration of anoxia stress tolerance: 34.50 min
Albino Wistar rats; Second week
  Duration of anoxia stress tolerance: 37.33 min
Albino Wistar rats; Third week
  Duration of anoxia stress tolerance: 37.00 min

## CNCCC(Oc1ccc(C(F)(F)F)cc1)c1ccccc1 (centres unmarked) [Fluoxetine]
Rats [1]
  Immobility time: 120 s
Rats [2]
  Immobility time: 122 s
Rats [3]
  Immobility time: 122 s
Rats [4]
  Immobility time: 120 s
Rats [5]
  Immobility time: 122 s and 120 s

## COc1ccc(Cl)cc1C(=O)NCCc1ccc(S(=O)(=O)NC(=O)NC2CCCCC2)cc1 [Glibenclamide]
[6]; 0.5 mg/kg for 28 days
  Fasting blood glucose (FBG) level after 28 days: 125 mg/dL
[6]; Day 1 (Initial), standard drug
  Fasting Blood Glucose level: 423 mg/dL
[6]; Day 7, standard drug
  Fasting Blood Glucose level: 381 mg/dL
[6]; Day 14, standard drug
  Fasting Blood Glucose level: 246 mg/dL
[6]; Day 21, standard drug
  Fasting Blood Glucose level: 197 mg/dL
[6]; Day 28, standard drug
  Fasting Blood Glucose level: 125 mg/dL
[6]; [8]
  Fasting blood glucose (FBG) level, initial: 423 mg/dL
[7]; 0.5 mg/kg for 28 days
  Fasting blood glucose (FBG) level after 28 days: 124 mg/dL
[7]; Day 1 (Initial), standard drug
  Fasting Blood Glucose level: 422 mg/dL
[7]; Day 7, standard drug
  Fasting Blood Glucose level: 380 mg/dL
[7]; Day 14, standard drug
  Fasting Blood Glucose level: 245 mg/dL
[7]; Day 21, standard drug
  Fasting Blood Glucose level: 196 mg/dL
[7]; Day 28, standard drug
  Fasting Blood Glucose level: 124 mg/dL
[7]; [8]
  Fasting blood glucose (FBG) level, initial: 422 mg/dL

## COc1ccc2c(c1)c(CC(=O)O)c(C)n2C(=O)c1ccc(Cl)cc1 [Indomethacin]
Wistar rats; 0.5 hr
  inhibition at 10 mg/kg: 28%
Wistar rats; 1 hr
  inhibition at 10 mg/kg: 65%
Wistar rats; 2 hr
  inhibition at 10 mg/kg: 80%
Wistar rats; 3 hr
  inhibition at 10 mg/kg: 86%
